What all share (test): NCI-60 cell line screen, 48 h
In experiment [1] the test system is HCC-2998 colon.
For experiment [2], the system named is NCI/ADR-RES ovarian.
The subject of experiment [3] is HL-60(TB) leukemia.
Experiment [4] concerns A498 renal.
Experiment [5] deals with SF-295 CNS.
In experiment [6] the test system is T-47D breast.
In experiment [7] the test system is BT-549 breast.
Experiment [8] has as its system NCI-H460 lung.
In experiment [9] the test system is SK-MEL-5 melanoma.
Experiment [10] concerns TK-10 renal.
The test system of experiment [11] is SNB-19 CNS.
For experiment [12], the system named is SK-MEL-28 melanoma.
In experiment [13] the test system is KM12 colon.
In experiment [14] the test system is CCRF-CEM leukemia.
Experiment [15] concerns A549 NSCLC.
The subject of experiment [16] is NCI-H226 lung.
For experiment [17], the system named is OVCAR-4 ovarian.
Experiment [18] deals with CAKI-1 renal.
The subject of experiment [19] is DU-145 prostate.

We go through 16 compounds from PubChem BioAssay (NCI).

Structures are written as SMILES.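 Tested at 5 concentrations; 48 h exposure; 96-well plates; endpoints linearly interpolated, else capped at highest concentration. TGI: total growth inhibition.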

Consider `O=C(O)c1ccccc1/C=N/NC1=NCCCCN1`, for which the TGI in [1], in experiment [2], in experiment [3], in [4], in experiment [5] and in experiment [6] was more than 100 µM in each case. For the same compound, the TGI in [7], in experiment [8], in experiment [9], in experiment [10], in experiment [11] and in [12] was more than 100 µM throughout. Besides, the TGI in experiment [13], in [14], in [15], in experiment [16] and in [17] was more than 100 µM throughout.

In the case of `COc1cccc(C2C3=C(COC3=O)Oc3cc4c(cc32)OCO4)c1` (configuration not stated), the TGI is more than 100 µM in experiment [18]; 6.77 µM in [19]; 1.88 µM in experiment [1]; more than 6.6 µM in experiment [2]; 0.0524 µM in experiment [3]; 1.27 µM in experiment [4]. Besides, the TGI in [5] is 0.228 µM; in experiment [7], more than 100 µM; in [8] it was more than 34 µM; in experiment [9] it was more than 43.1 µM; in experiment [10] it was 93.6 µM; in experiment [11], more than 100 µM. In addition, the TGI in [12] is more than 100 µM; in experiment [13], 6.43 µM; in experiment [14], 7.74 µM; in experiment [15], more than 100 µM; in [17], more than 100 µM.

As to `NCCN1CC2CCC(CC2)C1`, the TGI in experiment [18], in [19], in experiment [1], in [2], in experiment [3] and in experiment [4] was more than 10 µM in each case. Besides, the TGI in [5], in experiment [6], in [8], in experiment [9], in experiment [10] and in experiment [11] was more than 10 µM each time. Also, the TGI in experiment [12], in experiment [13], in [14], in experiment [15], in experiment [16] and in [17] was more than 10 µM each time.

Take `CC(=O)OC1CC[C@]2(C)C3CC[C@@]4(C)C(CCC4[C@H](C)CCCC(C)C)[C@@H]3CCC2(Br)C1` (some centres not stated): the TGI was 25 µM in experiment [18]; more than 50 µM in [19]; more than 50 µM in [1]; more than 50 µM in experiment [2]; 28.3 µM in experiment [3]; 18 µM in [4]. Moreover, the TGI is more than 50 µM in experiment [5]; more than 50 µM in [6]; more than 50 µM in experiment [8]; 26.5 µM in experiment [10]; more than 50 µM in experiment [11]; 16.2 µM in [12]. The TGI in experiment [13] is more than 50 µM; in experiment [14], 27.3 µM; in [15], more than 50 µM; in [16] it was more than 50 µM; in experiment [17], 24 µM.

With `COc1ccc(C2SC(C)C(=O)N2c2nc(-c3nc(-c4ccc(Cl)cc4)cs3)cs2)cc1` (configuration not stated), the TGI in [18], in experiment [1], in experiment [2], in experiment [3], in experiment [5] and in experiment [6] was more than 100 µM each time. The TGI in experiment [7], in experiment [8], in experiment [9], in experiment [10], in experiment [11] and in [13] was more than 100 µM throughout. Further, the TGI in experiment [14], in [15], in experiment [16] and in experiment [17] was more than 100 µM in each case.

Take `O=C(/C=C/c1ccc(O)c(O)c1O)OCCc1ccccc1`: the TGI in experiment [18] was more than 100 µM; in [19], more than 100 µM; in experiment [1] it was more than 100 µM; in [2], 70.7 µM; in experiment [3] it was 48.8 µM; in experiment [4], more than 100 µM. Also, the TGI is 35.5 µM in experiment [5]; more than 100 µM in experiment [6]; 42.7 µM in experiment [8]; more than 100 µM in experiment [9]; more than 100 µM in experiment [10]; more than 100 µM in experiment [11]. Moreover, the TGI is more than 100 µM in experiment [12]; 46.4 µM in [13]; 52.8 µM in experiment [15]; 97.9 µM in experiment [16]; 29.5 µM in [17].

As to `Cc1ccc(S(=O)(=O)NC(=O)Nc2ccc(S(N)(=O)=O)cc2S(N)(=O)=O)cc1`, the TGI in experiment [18], in [19], in experiment [2], in [3], in experiment [5] and in experiment [7] was more than 100 µM in each case. Further, the TGI in [9], in experiment [10], in experiment [11], in experiment [12], in experiment [13] and in [14] was more than 100 µM each time. Besides, the TGI in experiment [15], in experiment [16] and in experiment [17] was more than 100 µM in each case.

For the compound `CC#CCCN(CC#N)Cc1ccccc1`, the TGI in [18] is more than 100 µM; in experiment [19] it was more than 100 µM; in [1], more than 100 µM; in experiment [2], more than 100 µM; in experiment [3], more than 100 µM; in experiment [4], 37.2 µM. In addition, the TGI in experiment [5], in experiment [6], in [8], in experiment [9], in [10] and in experiment [11] was more than 100 µM each time. The TGI in [12], in [13], in experiment [14], in [15], in [16] and in experiment [17] was more than 100 µM throughout.

With `Cc1ccc(S(=O)(=O)N2CCCC2C(=O)O[C@H]2CC[C@H]3CC=C[C@H]32)cc1` (some centres not stated), the TGI in [18] is more than 100 µM; in experiment [1], more than 100 µM; in experiment [2], 77.2 µM; in [4], 89 µM; in [5], more than 100 µM; in experiment [6], more than 100 µM. The TGI was more than 100 µM in experiment [7]; 91.4 µM in experiment [8]; 43.6 µM in [9]; more than 100 µM in experiment [11]; 96.7 µM in experiment [12]; more than 100 µM in experiment [13]. Also, the TGI was more than 100 µM in experiment [14], more than 31.6 µM in experiment [15], more than 100 µM in [16] and more than 100 µM in experiment [17].

For the compound `COc1cc(O)c2c(=O)cc(C3(O)C=CC(=O)C=C3)oc2c1`, the TGI in experiment [19] came out at 3.18 µM; in experiment [1], 1.12 µM; in [2], 18.9 µM; in experiment [3], 2.75 µM; in [4], 11.1 µM; in [5], 2.09 µM. The TGI was determined as 1.49 µM in [7]; 2.06 µM in experiment [8]; 0.234 µM in experiment [9]; 0.376 µM in [10]; 0.578 µM in experiment [12]; 0.447 µM in [13]. The TGI in [16] stood at 1.73 µM; in [17], 3.35 µM.

As for `CCCCCCCN1C(=O)C(O)(c2ccc(C3(O)C(=O)N(CCCCCCC)c4ccccc43)s2)c2ccccc21` (configuration not stated), the TGI in [19] was found to be 3.29 µM; in [1] it was 3.44 µM; in [3], 3.42 µM; in experiment [5], 3.42 µM; in experiment [6], 15 µM; in [7], 4.12 µM. Further, the TGI in [8] is 3.49 µM; in experiment [9], 3.26 µM; in experiment [10], 5.67 µM; in experiment [11] it was 8.7 µM; in experiment [12], 3.98 µM; in experiment [13], 3.36 µM. Moreover, the TGI in experiment [14] was 27 µM; in experiment [17], 3.77 µM.

With `Cc1ccc(S(=O)(=O)Oc2nc3ccccc3nc2N(S(=O)(=O)c2ccc(C)cc2)S(=O)(=O)c2ccc(C)cc2)cc1`, the TGI in experiment [18], in experiment [19], in experiment [1], in experiment [2], in experiment [3] and in experiment [4] was more than 100 µM in each case. Moreover, the TGI in experiment [5], in [7], in experiment [8], in experiment [9], in experiment [10] and in experiment [11] was more than 100 µM each time. Further, the TGI in [12], in experiment [13], in experiment [14], in experiment [15] and in [16] was more than 100 µM each time.

Turning to `COc1c(O)c2c(=O)cc(OC)c3c4c(OC)cc(=O)c5c(O)c(OC)c6c(c(c1C(C(C)=O)C6C(C)O)c23)c54` (configuration not stated), the TGI in [19] came to 1.74 µM; in [1], 1.06 µM; in [2] it was 1.58 µM; in experiment [3] it was 0.415 µM; in experiment [4], 28.3 µM; in experiment [5] it was 2.05 µM. Moreover, the TGI in experiment [6] is 1.64 µM; in [8], 0.688 µM; in experiment [10] it was 3.65 µM; in experiment [11] it was 0.413 µM; in experiment [12], 3.3 µM; in experiment [13], 1.07 µM. The results for the TGI in [14], in [15] and in [16] were 1.16 µM, 3.06 µM and 3.65 µM, respectively.

On to `C/C=C/C(=O)N1C(=O)OC[C@@H]1c1ccccc1`, for which the TGI in [18] stood at 32.6 µM; in experiment [19], 37.4 µM; in experiment [1], 41.3 µM; in experiment [2] it was 44.4 µM; in experiment [3], 43 µM; in experiment [4] it was 45.7 µM. The TGI is more than 100 µM in experiment [5]; 36.8 µM in [6]; 38.4 µM in [9]; 32.2 µM in experiment [10]; 41.4 µM in [11]; 45.5 µM in experiment [12]. Besides, the TGI in [13] stood at 29.3 µM; in [14], 44.8 µM; in experiment [15] it was 36.3 µM; in [16], 39.6 µM; in experiment [17], 45.3 µM.

`COC(=O)[C@@H]1C[C@@H]2c3ccccc3N(S(=O)(=O)c3ccccc3)[C@@H]2N1C(=O)OC`: the TGI in experiment [18], in [19], in [1], in experiment [2], in experiment [3] and in experiment [5] was more than 100 µM throughout. Moreover, the TGI in experiment [7], in experiment [8], in [9], in [10], in experiment [11] and in experiment [12] was more than 100 µM throughout. The TGI in experiment [13], in experiment [14], in [15], in experiment [16] and in experiment [17] was more than 100 µM throughout.

For the compound `COc1ccc(/C=C2\N=C(NN)N=C2Cl)cc1`, the TGI in experiment [18], in experiment [19], in experiment [1], in experiment [2], in experiment [3] and in experiment [4] was more than 100 µM in each case. Moreover, the TGI in experiment [5], in experiment [6], in experiment [9], in experiment [10], in experiment [11] and in [12] was more than 100 µM in each case. The TGI in experiment [13], in [14], in experiment [15], in experiment [16] and in experiment [17] was more than 100 µM in each case.
